Results from PMC12062876, “Efficient constitution of a library of rotenoid analogs active against Trypanosoma cruzi from a digitalized plant extract collection” (RSC Advances, 2025).

What was measured:
[1] = system: T. cruzi amastigotes; assay: Activity against intracellular T. cruzi amastigotes; format: cell-based, Trypanosoma cruzi; details: intracellular amastigotes grown in rat L6 cells; means of two independent assays; read-out: IC50 T. cruzi amastigotes
Description: The bioactivity of isolated compounds against intracellular T. cruzi amastigotes grown in rat L6 […] is presented in Table 1. […] Rotenone and deguelin are known to be strong mitochondrial complex I (also known as NADH:ubiquinone oxidoreductase) inhibitors,[43–45] while different activities between closely related rotenoids (rotenone, 5′-α-epirotenone, and 5′-β-epirotenone) has already been shown. […] The variation in activity observed on our rapidly generated series of structural analogs points in the same direction. As shown in Fig. 3 and Table 1, the cyclic and bent form of the rotenoid at the B/C ring junction is essential for activity, since compounds 40 and 41 were not active.
The pure compounds activity was assessed against T. cruzi amastigotes as described in ref. [27].

[2] = system: L6 cells (rat skeletal myoblast); assay: Cytotoxicity assay: L-6 cells; format: cell-based; details: means of two independent assays
Protocol: The pure compounds cytotoxicity was assessed against L6 cells as described in ref. [27].

For medicarpin [Compound 15], the IC50 [1] was 202 µM and the IC50 [2] was 226 µM.
